Laboratory results as given in patent publication EP2292241A1, “A SCUTELLARIN DERIVATIVE, THE PREPARING PROCESS, THE PHARMACEUTICAL COMPOSITION AND THE USE THEREOF” (Kunming Pharmaceutical Corp., priority 2008, dated 2009).

Legend:
[1] = comparative study on solubilities (China Pharmacopeia 2005 terms); assay type: physicochemical; details: terms per China Pharmacopeia 2005
Excerpt: Table 7 Comparison on solubilities of compound A1 of the present invention and scutellarin

[2] = tested on: rats with MCAO induced focal cerebral ischemia; experiment: focal cerebral ischemia induced by MCAO (middle cerebral artery occlusion) in rats; assay type: in vivo, SD rat; details: for range of cerebral infarction: TTC stain, % of bilateral cerebral hemispheres weight; for behavior score: full score 12, higher = more severe; for rate of platelet aggregation: ADP-induced, turbidimetry; for range of cerebral infarction rate of decrease: compared with the modeling group; for indicators of coagulation APTT / indicators of coagulation FIB / indicators of coagulation PT / indicators of coagulation TT: plasma 24h after modeling
Description: Male SD rats, weighing 240~290g, grouping and dosages were as above. Additionally, a positive control group, i.e., nimodipine 50mg/kg group was set up. Animals of each group were gavage once daily for consecutive 5 days in predetermined dosage. At 30 minute after the last administration, the animals were anesthetized with 12% chloral hydrate in 350 mg/kg via intraperitoneal injection. The animals were kept left lateral position and the skin was cut along the middle point between right ear and eye line. Temporalis was separated and cheekbone was sheared. A holl was drilled with a dental drill in front of zygomatic root and MCA was exposed. The MCA was hooked with a needle between the vein and olfactory tract in the brain, then was broke, after bleeding was stopped with a cotton ball, muscle and skin layer was sutured in layer. For the sham group, except for no breaking of MCA, other steps were same.
The animals were scored on neurological functions at 6 hour and 24 hour after modeling, according to behavior such as movement. Such score was used as an indicator of brain dysfunction. […] The standards of grading were as follows;
The full score of the above standards is 12. The higher the score is, the more severe the behavior disorder is.
24 hour after modeling and after neurological scoring, blood was taken via carotid artery intubation in duplicate. For one sample, serum was separated and the activity of AST and LDH was determined according to the method of the kit; for another sample, it was treated with 3.8% sodium citrate in 1:9 for the purpose of anticoagulation, centrifuged at 1000rpm for 5 minutes to prepare platelet rich plasma (PRP), and centrifuged at 3500rpm for 10 minutes to prepare platelet poor plasma (PPP). The rate of platelet aggregation induced by ADP-2Na was determined according to turbidimetry, the final concentration of ADP was […]; TT, PT, APTT and FIB was determined according to the method of the kit, respectively. The brain was removed quickly by decollation after blood taking, and then placed into ice cold saline solution to remove olfactory bulb, cerebellum and brainstem. The brain was weighed after water being absorbed to dryness, and then cut into 5 pieces along the coronal, placed into a 5ml solution containing 4% TTC and 0.1ml K2HPO4 (1mol/L) and incubated for 30 minutes at 37°C and in darkness. During the course every 7 to 8 minutes a turning was made. […] The infracted part was cut and weighed. The percentage of infracted tissue accounting for the total weight of bilateral cerebral hemispheres was calculated by weight area method, which was the range of cerebral infarction.

[3] = toxic or adverse effect at high dosage in animal experiments; assay type: in vivo
[4] = tested on: rats with myocardial ischemia caused by coronary artery ligation; experiment: myocardial ischemia caused by coronary artery ligation in rats; assay type: in vivo, SD rat; details: for rate of platelet aggregation: ADP-induced, turbidimetry; for range of myocardial infarction: TTC stain, infarcted part as % of ventricle weight; for range of myocardial infarction rate of decrease: compared with the modeling group; for indicators of coagulation APTT / indicators of coagulation FIB / indicators of coagulation PT / indicators of coagulation TT: plasma 24h after ligation
Description: Male SD rats of 330~385g were divided at random into sham group, model group, breviscapine tablet of 40mg/kg group, A1 20mg/kg group and A1 40mg/kg group. Animals of each group were gavage once daily for consecutive 5 days in predetermined dosage, for blank group and model group, the rats were given same volume of 0.5% CNC-Na in 10ml/kg body weight. At 30 minute after the last administration, the animals were anesthetized with 12% chloral hydrate in 350 mg/kg via intraperitoneal injection, then a thoracotomy was performed to render the heart exposed. The left anterior descending coronary artery was found between pulmonary artery cone and left ventricular and was ligated at 2-3mm to the root. Reposited the heart and closed the thoracic cavity. For the sham group, the suture was merely placed but not ligated.
II lead limb ECGs before ligation and at 5min, 30 min, 1h, 2h, 4h and 24h after ligation were recorded, respectively. The change of S-T segment (J point) was measured. After 24h ECG was recorded, blood was collected in duplicate via carotid artery intubation. For one sample, serum was separated and the activity of AST, LDH and CK-MB was determined according to the method of the kit; for another sample, it was treated with 3.8% sodium citrate in 1:9 for the purpose of anticoagulation, centrifuged at 1000rpm for 5 minutes to prepare platelet rich plasma (PRP), and centrifuged at 3500rpm for 10 minutes to prepare platelet poor plasma (PPP). The rate of platelet aggregation induced by ADP-2Na was determined according to turbidimetry, the final concentration of ADP was […]; TT, PT, APTT and FIB was determined according to the method of the kit, respectively. The heart was removed quickly after blood taking, and placed into ice cold saline solution to pump out deposit blood in thoracic cavity. The atria and adipose tissue were removed, and water was adsorbed to dryness. The ventricle was weighed, cut into 5 pieces along the coronal, then incubated and stained for 10 minutes in 1% TTC solution at 37°C in darkness. […] The infracted part was cut and weighed. The percentage of infracted part accounting for the total weight of ventricle was calculated, which was the range of myocardial infarction.

[5] = 20mg/kg, serum 24h after ligation
[6] = 40mg/kg, serum 24h after ligation

Structure (SMILES): O=C(O)[C@H]1O[C@@H](Oc2cc3oc(-c4ccc(O)cc4)cc(=O)c3c(O)c2O)[C@H](O)[C@@H](O)[C@@H]1O [scutellarin]
- solubility ([1]; 0.01N NaOH): soluble
- solubility ([1]; 95%EtOH): slightly soluble
- solubility ([1]; H2O): very slightly soluble
- solubility ([1]; MeOH): slightly soluble
- solubility ([1]; n-BuOH): slightly soluble

Structure (SMILES): COCCOC(=O)C1=C(C)NC(C)=C(C(=O)OC(C)C)C1c1cccc([N+](=O)[O-])c1 (stereo not shown) [nimodipine, reference compound]
- body weight 6h after surgery ([2]; 50mg/kg): 257.1 ± 11.4 g
- body weight 24h after surgery ([2]; 50mg/kg): 249.6 ± 10.5 g
- body weight prior to surgery ([2]; 50mg/kg): 265.8 ± 12.9 g
- range of cerebral infarction ([2]; 50mg/kg gavage once daily 5 days): 2.27±2.56 %
- behavior score ([2]; 50mg/kg, 6h after modeling): 6.50±1.68
- serum enzymes AST ([2]; 50mg/kg, 24h after modeling): 198.6±118.2 u/L
- serum enzymes LDH ([2]; 50mg/kg, 24h after modeling): 536.7±262.8 u/L
- behavior score ([2]; 50mg/kg, 24h after modeling): 4.83±1.40
- rate of platelet aggregation ([2]; 50mg/kg, 24h after modeling): 54.15±7.76%
- range of cerebral infarction rate of decrease ([2]; 50mg/kg): 60.66%
- indicators of coagulation APTT ([2]; 50mg/kg): 61.02 ± 44.79 s
- indicators of coagulation FIB ([2]; 50mg/kg): 3.52 ± 1.14 g/L
- indicators of coagulation PT ([2]; 50mg/kg): 23.38 ± 8.23 s
- indicators of coagulation TT ([2]; 50mg/kg): 88.55 ± 32.24 s

Structure (SMILES): COc1ccc(-c2cc(=O)c3c(OC)c(OC)c(OC4O[C@H](C(=O)O)[C@@H](O)[C@H](O)[C@H]4O)cc3o2)cc1 (stereo partly shown) [A1, 4',5,6-trimethoxylscutellarin]
- body weight 6h after surgery ([2]; 20mg/kg): 258.3 ± 11.9 g
- body weight 24h after surgery ([2]; 20mg/kg): 250.0 ± 15.1 g
- body weight prior to surgery ([2]; 20mg/kg): 268.8 ± 12.4 g
- range of cerebral infarction ([2]; 20mg/kg gavage once daily 5 days): 2.36±1.81 %
- behavior score ([2]; 20mg/kg, 6h after modeling): 6.42±1.62
- serum enzymes AST ([2]; 20mg/kg, 24h after modeling): 171.2±71.6 u/L
- serum enzymes LDH ([2]; 20mg/kg, 24h after modeling): 571.1±287.5 u/L
- behavior score ([2]; 20mg/kg, 24h after modeling): 4.92±1.31
- rate of platelet aggregation ([2]; 20mg/kg, 24h after modeling): 50.52±4.07 %
- range of cerebral infarction rate of decrease ([2]; 20mg/kg): 59.10%
- indicators of coagulation APTT ([2]; 20mg/kg): 62.48 ± 29.08 s
- indicators of coagulation FIB ([2]; 20mg/kg): 3.38 ± 1.07 g/L
- indicators of coagulation PT ([2]; 20mg/kg): 25.56 ± 5.30 s
- indicators of coagulation TT ([2]; 20mg/kg): 95.55 ± 24.80 s
- body weight 6h after surgery ([2]; 40mg/kg): 253.8 ± 12.1 g
- body weight 24h after surgery ([2]; 40mg/kg): 244.2 ± 12.2 g
- body weight prior to surgery ([2]; 40mg/kg): 265.8 ± 12.4 g
- range of cerebral infarction ([2]; 40mg/kg gavage once daily 5 days): 2.04±1.43 %
- behavior score ([2]; 40mg/kg, 6h after modeling): 5.75±1.42
- serum enzymes AST ([2]; 40mg/kg, 24h after modeling): 152.9±33.0 u/L
- serum enzymes LDH ([2]; 40mg/kg, 24h after modeling): 472.0±231.9 u/L
- behavior score ([2]; 40mg/kg, 24h after modeling): 4.25±1.60
- rate of platelet aggregation ([2]; 40mg/kg, 24h after modeling): 52.38±5.24 %
- range of cerebral infarction rate of decrease ([2]; 40mg/kg): 64.64%
- indicators of coagulation APTT ([2]; 40mg/kg): 75.15 ± 27.41 s
- indicators of coagulation FIB ([2]; 40mg/kg): 3.59 ± 0.76 g/L
- indicators of coagulation PT ([2]; 40mg/kg): 23.43 ± 8.66 s
- indicators of coagulation TT ([2]; 40mg/kg): 62.04 ± 40.80 s
- toxic or adverse effect [3]: No toxic or adverse effect was found
- change of S-T segment after ligation ([4]; 20mg/kg gavage once daily 5 days, 5min after ligation): 0.17±0.11 mv
- change of S-T segment after ligation ([4]; 20mg/kg gavage once daily 5 days, 30min after ligation): 0.12±0.09 mv
- change of S-T segment after ligation ([4]; 20mg/kg gavage once daily 5 days, 1h after ligation): 0.11±0.08 mv
- change of S-T segment after ligation ([4]; 20mg/kg gavage once daily 5 days, 2h after ligation): 0.11±0.07 mv
- change of S-T segment after ligation ([4]; 20mg/kg gavage once daily 5 days, 4h after ligation): 0.11±0.08 mv
- change of S-T segment after ligation ([4]; 20mg/kg gavage once daily 5 days, 24h after ligation): 0.07±0.08 mv
- rate of platelet aggregation ([4]; 20mg/kg, 24h after ligation): 51.20±7.41 %
- range of myocardial infarction ([4]; 20mg/kg): 3.50±2.68 %
- range of myocardial infarction rate of decrease ([4]; 20mg/kg): 45.65%
- indicators of coagulation APTT ([4]; 20mg/kg): 78.17 ± 28.14 s
- indicators of coagulation FIB ([4]; 20mg/kg): 4.77 ± 1.11 g/L
- indicators of coagulation PT ([4]; 20mg/kg): 25.90 ± 3.51 s
- indicators of coagulation TT ([4]; 20mg/kg): 92.41 ± 42.37 s
- myocardial enzymology AST [4, 5]: 0.61±0.26 ku/L
- myocardial enzymology CK-MB [4, 5]: 0.71±0.45 ku/L
- change of S-T segment after ligation ([4]; 40mg/kg gavage once daily 5 days, 5min after ligation): 0.14±0.12 mv
- change of S-T segment after ligation ([4]; 40mg/kg gavage once daily 5 days, 30min after ligation): 0.06±0.06 mv
- change of S-T segment after ligation ([4]; 40mg/kg gavage once daily 5 days, 1h after ligation): 0.05±0.04 mv
- change of S-T segment after ligation ([4]; 40mg/kg gavage once daily 5 days, 2h after ligation): 0.05±0.04 mv
- change of S-T segment after ligation ([4]; 40mg/kg gavage once daily 5 days, 4h after ligation): 0.06±0.05 mv
- change of S-T segment after ligation ([4]; 40mg/kg gavage once daily 5 days, 24h after ligation): 0.02±0.03 mv
- rate of platelet aggregation ([4]; 40mg/kg, 24h after ligation): 48.22±5.55 %
- range of myocardial infarction ([4]; 40mg/kg): 2.52±2.16 %
- range of myocardial infarction rate of decrease ([4]; 40mg/kg): 60.87%
- indicators of coagulation APTT ([4]; 40mg/kg): 75.96 ± 35.87 s
- indicators of coagulation FIB ([4]; 40mg/kg): 3.95 ± 0.84 g/L
- indicators of coagulation PT ([4]; 40mg/kg): 25.75 ± 5.26 s
- indicators of coagulation TT ([4]; 40mg/kg): 93.04 ± 35.64 s
- myocardial enzymology AST [4, 6]: 0.61±0.20 ku/L
- myocardial enzymology CK-MB [4, 6]: 0.80±0.68 ku/L
- myocardial enzymology LDH [4, 6]: 0.61±0.24 ku/L
